From patent US12102594B2, “Infusion bag of Midazolam for intravenous use” (Sun Pharmaceutical Industries Limited, priority 2019, dated 2024)

Tests used:
[1] = cited from earlier work
[2] = Terminal sterilization in different packaging material: Midazolam potency by HPLC based assay; assay type: physicochemical
Procedure: Method: Midazolam formulation samples (i) autoclaved and (ii) unautoclaved, were stored in different packaging materials, i.e. glass bottle, IC-H-AE-1, IC-S, IC-S′ and IC-PHC. Initial potency of Midazolam in such samples was tested using an HPLC based assay method.

[3] = Adsorption behaviour of Midazolam in different bags at variable fill volume (HPLC assay); assay type: physicochemical; conditions: 1 mg/mL, fill volumes 10, 20, 30, 40 ml
Procedure: Method: Adsorption behaviour of Midazolam in different bags (IC-S′, IC-S and IC-PHC) was evaluated at four variable fill volumes, i.e. 10 ml, 20 ml, 30 ml and 40 ml. The assay values of autoclaved samples of Midazolam formulation were evaluated using an HPLC based assay method. […] At lowest fill volume, surface area to volume ratio was high resulting higher adsorption of API on contact layer of infusion bags. As fill volume increases surface area to volume ratio decreases leads to lower adsorption and higher assay values. This confirmed the physical adsorption of Midazolam in IC-S infusion bags. […] This also ruled out the possibility of Midazolam adsorption in IC-PHC infusion bags.

[4] = Packaging material screening: Assay of Midazolam HCL Injection in autoclaved and unautoclaved infusion containers; assay type: physicochemical
Procedure: Manufacturing process: Bulk solution preparation: 80% of the batch size of water for injection (WFI) was collected at a temperature of 20° C. to 25° C. in stainless steel 316L manufacturing tank of suitable capacity. Nitrogen gas was purged to get dissolve oxygen content less than 1 mg/L (ppm), pressure of nitrogen gas and time of purging or flow rate of nitrogen gas were recorded. Sodium chloride was added and dissolved gradually followed by stirring for not less than 10 minutes to ensure complete solubilization and clarity of solution visually. While additional excipients were added as below, the purging was stopped. 1 w/w hydrochloric acid (35 mL/Kg) was added and stirred well for approximately 10 minutes. […] The pH was adjusted to 3.0±0.1 using sufficient quantity of 1 w/w hydrochloric acid and stirred for around 1 h after pH adjustment to ensure complete dissolution of drug, stabilization of pH and until the appearance of the solution was a clear colourless solution. The pH was adjusted at 3.4±0.2 using sufficient quantity of 1 w/w Sodium hydroxide solution, and the volume was made up with dissolved oxygen maintained WFI stored at 20° C. to 25° C. […]

[5] = Potency loss at lower concentration 0.2 and 0.5 mg/mL in different infusion bags (HPLC assay); assay type: physicochemical
Procedure: Method: Loss of potency of Midazolam was assessed using an HPLC based assay method for (i) autoclaved and (ii) unautoclaved formulations (0.2 mg/ml and 0.5 mg/ml) in glass bottle, IC-S infusion bag, IC-S′ infusion bag and IC-PHC infusion bag.

Compound | period over which diluted preparation was stable ([1]; 0.5 mg/ml, diluted with 5% dextrose solution and 0.9% sodium chloride, polyolefin bags, dark, room temperature (Hagan et al.)) [days] | period over which diluted solution remained stable ([1]; 1 mg/ml diluted with 5% dextrose, polyvinyl chloride and polyolefin bags, regardless of storage conditions (Karlage et al.)) | Midazolam potency loss ([2]; IC-H-AE-1 infusion bags) | Midazolam potency, autoclaved vs un-autoclaved ([2]; IC-PHC infusion bags) | Midazolam potency after autoclaving ([2]; IC-S and IC-S′ infusion bags) | impact of fill volume on potency ([3]; IC-PHC infusion bags) | assay of autoclaved sample vs fill volume ([3]; IC-S infusion bags) | loss in assay or content upon autoclaving and long term storage ([4]; cyclo-olefin polymer or co-polymer as innermost layer of the infusion container) | loss of assay percentage immediately after autoclaving ([4]; infusion bags with inner layer of low density polyethylene, polypropylene, polyolefin copolymer or ethylene propylene copolymer) | potency loss ([5]; IC-PHC infusion bags, 0.2 and 0.5 mg/mL) | potency loss ([5]; IC-PHC infusion containers, 0.2 mg/mL) | potency loss ([5]; IC-PHC infusion containers, 0.5 mg/mL) | potency loss ([5]; IC-S and IC-S′ infusion bags, 0.2 and 0.5 mg/mL) | period of stability ([1]; 1 mg/ml in 0.9% sodium chloride, polyvinyl chloride bags, fluorescent light, room temperature (McMullin et al.))
Cc1ncc2n1-c1ccc(Cl)cc1C(c1ccccc1F)=NC2.Cl [Midazolam hydrochloride, 8-chloro-6-(2-fluorophenyl)-1-methyl-4H-imidazo[1,5-a][1,4] benzodiazepine hydrochloride] | 30 | about 27 days |  |  |  |  |  |  |  |  |  |  |  | 
Cc1ncc2n1-c1ccc(Cl)cc1C(c1ccccc1F)=NC2 [Midazolam] |  |  | Potency loss was also not observed | no significant change | found to decrease after autoclaving | no impact of fill volume on potency | increasing trend with increasing fill volume | substantially no loss in assay | significant loss of assay percentage | no potency loss | no potency loss | no potency loss | significant potency loss | about 10 days
